According to patent US12037329B2, “SphK inhibitors and methods of making and using same” (Washington University, priority 2021, dated 2024):
pIC50: −log10 of the molar value. Entries after “also recorded” stand apart in the source; their conditions may differ. Structures can show the parent of a compound that is named as a salt.

Biological target: SphK2 (Homo sapiens (Human), UniProt Q9NRA0)
Test: ADP-Glo kinase assay, SphK2
Assay type: biochemical
Conditions: for selectivity/specificity for SphK2 over SphK1: 125 μM of each compound, SphK2 versus SphK1, FIG. 5; for pIC50: ADP-Glo assay, 50 μM ATP, recombinant human SphK2
From the text: The bioluminescence-based kinase assay such as ADP-Glo assay measures ADP formed from a kinase reaction with a luciferase. Upon the completion of a kinase reaction, the remaining ATP is depleted, the ADP produced in the kinase reaction is then converted to ATP and the detection is based on a sensitive and robust bioluminescence reaction. It has a broad linear range of ATP concentrations and high dynamic range. To determine the inhibition activity of the compounds, the ADP-Glo kinase assay was used which was able to detect down to 20% of 1 μM ATP to ADP conversion (FIG. 4A).
ADP-Glo (Promega, Madison, WI) kinase assay were used to evaluate the kinase activity of SphK. ATP to ADP standard curves were prepared in the kinase buffer to assess the linearity of the assay in order to calculate the amount of ADP produced in each tested conditions (FIG. 4A). SB10 (tenfold signal to background ra-tio) of SphK was also determined to evaluate the enzyme perfor-mance and to optimize the kinase reaction condition in this system. In brief, for SphK2, […], 100 μM of D-erythro-Sphingosine (Tocris Bioscience, Minneapolis, MN), and 2 ng of recombinant human SphK2 (R&D Systems, Minneapolis, MN) with desired concentration of each synthesized compound were used for SphK2 kinase reaction. For SphK1, exact same reaction condition was used except 0.5 ng of recombinant human SphK1 was used.
To evaluate the SphK selectivity of each compound, 125 μM of each compound in reaction buffer ([…] Tris, pH 8.0, […] MgCl2, and 0.1 mg/mL BSA) with 5% DMSO was incubated with either SphK1 or SphK2 in a 384-well solid white low volume microplate (Corning, Corning, NY), and the reaction was initiated by adding mixture of ATP and D-erythro-Sphingosine to a total volume of 5 μL, after 1 h incubation at room temperature with gentle shaking, the reaction was stopped by adding equal volume of ADP-Glo buffer and incubated for another hour to remove excess amount of ATP from the reaction. Afterwards, 10 μL of kinase detection reagent was added, mixed, and incubated for 30 min under dark. Luminescence output was recorded using a SpectraMax M5 Multi-Mode Microplate Readers (Molecular Devices, San Jose, CA), an integration time of 500 ms was used. All reactions were performed in triplicate. The enzyme activity of SphK in the presence of each compound was normalized to the no treatment control. […] The final data was calculated using Prism 7.0 (GraphPad Software, La Jolla, CA), IC50 was determined using Nonlinear regression (curve fit) four parameters dose-response calculations.

Sequence of SphK2 (Q9NRA0 whole entry): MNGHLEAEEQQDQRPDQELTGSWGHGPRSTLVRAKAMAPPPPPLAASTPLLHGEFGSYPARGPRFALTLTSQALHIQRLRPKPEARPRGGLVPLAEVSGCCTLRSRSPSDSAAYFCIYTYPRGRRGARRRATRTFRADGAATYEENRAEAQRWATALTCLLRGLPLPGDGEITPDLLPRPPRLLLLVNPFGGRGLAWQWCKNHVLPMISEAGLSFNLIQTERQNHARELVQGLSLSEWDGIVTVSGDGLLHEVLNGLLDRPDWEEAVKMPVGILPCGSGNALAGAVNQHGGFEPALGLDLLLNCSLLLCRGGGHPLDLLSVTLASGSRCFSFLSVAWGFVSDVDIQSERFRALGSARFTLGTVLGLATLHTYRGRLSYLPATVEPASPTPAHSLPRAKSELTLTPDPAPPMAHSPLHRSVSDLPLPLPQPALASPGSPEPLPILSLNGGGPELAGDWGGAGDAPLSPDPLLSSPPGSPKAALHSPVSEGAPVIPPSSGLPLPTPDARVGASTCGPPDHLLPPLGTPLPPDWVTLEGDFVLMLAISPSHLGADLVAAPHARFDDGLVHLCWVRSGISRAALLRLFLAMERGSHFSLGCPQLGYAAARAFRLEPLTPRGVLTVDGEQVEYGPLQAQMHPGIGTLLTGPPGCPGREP

SMILES	selectivity/specificity for SphK2 over SphK1 (hydrochloride)	pIC50	further results
Cl.N=C(N)N1CCC[C@H]1Cc1nc(-c2ccc(Cn3cc(-c4ccccn4)nn3)cc2)no1 [Compound 21c, (S)-2-((3-(4-((4-(Pyridin-2-yl)-1H-1,2,3-triazol-1-yl)methyl)phenyl)-1,2,4-oxadiazol-5-yl)methyl)pyrrolidine-1-carboximidamide hydrochloride]	high selectivity; also recorded: highest specificity	6.34	–
CCCCc1cn(Cc2ccc(-c3noc(C[C@@H]4CCCN4C(=N)N)n3)cc2)nn1.Cl [Compound 21d, (S)-2-((3-(4-((4-Butyl-1H-1,2,3-triazol-1-yl)methyl)phenyl)-1,2,4-oxadiazol-5-yl)methyl)pyrrolidine-1-carboximidamide hydrochloride]	lowest specificity; also recorded: no selectivity	–	SphK2 inhibitory activity (in words): no inhibitory activity
Cl.N=C(N)N1CCC[C@H]1Cc1nc(-c2ccc(Cn3cc(C4CC4)nn3)cc2)no1 [Compound 21f, (S)-2-((3-(4-((4-Cyclopropyl-1H-1,2,3-triazol-1-yl)methyl)phenyl)-1,2,4-oxadiazol-5-yl)methyl)pyrrolidine-1-carboximidamide hydrochloride]	lowest specificity; also recorded: no selectivity	–	SphK2 inhibitory activity (in words): no inhibitory activity
Cl.Cn1cc(-c2cn(Cc3ccc(-c4noc(C[C@@H]5CCCN5C(=N)N)n4)cc3)nn2)cn1 [Compound 21g, (S)-2-((3-(4-((4-(1-Methyl-1H-pyrazol-4-yl)-1H-1,2,3-triazol-1-yl)methyl)phenyl)-1,2,4-oxadiazol-5-yl)methyl)pyrrolidine-1-carboximidamide hydrochloride]	high selectivity; also recorded: highest specificity	6.63	–
Cl.N=C(N)N1CCC[C@H]1c1nc(-c2ccc(Cn3cc(-c4ccccn4)nn3)cc2)no1 [Compound 25c, (S)-2-(3-(4-((4-(Pyridin-2-yl)-1H-1,2,3-triazol-1-yl)methyl)phenyl)-1,2,4-oxadiazol-5-yl)pyrrolidine-1-carboximidamide hydrochloride]	–	–	selectivity/specificity for SphK2 over SphK1: lowest specificity; pIC50 (hydrochloride): 6.05
N=C(N)N1CCC[C@H]1c1nc(-c2ccc(Cn3cc(-c4cccs4)nn3)cc2)no1 [Compound 25e, (S)-2-((3-(4-((4-(Thiophen-2-yl)-1H-1,2,3-triazol-1-yl)methyl)phenyl)-1,2,4-oxadiazol-5-yl)-pyrrolidine-1-carboximidamide hydrochloride]	–	6.16	–
CCCCc1cn(Cc2ccc(-c3noc([C@@H]4CCCN4C(=N)N)n3)cc2)nn1.Cl [Compound 25f, (S)-2-((3-(4-((4-Butyl-1H-1,2,3-triazol-1-yl)methyl)phenyl)-1,2,4-oxadiazol-5-yl)pyrrolidine-1-carboximidamide hydrochloride]	–	6.60	–
CCCCc1cn(Cc2ccc(-c3noc([C@@H]4CCCN4C(=N)N)n3)cc2)nn1.Cl [Compound 25f]	–	–	selectivity/specificity for SphK2 over SphK1: high selective
N=C(N)N1CCC[C@H]1c1nc(-c2ccc(Cn3cc(-c4ccc(F)cc4)nn3)cc2)no1 [Compound 25g, (S)-2-((3-(4-((4-(4-Fluorophenyl)-1H-1,2,3-triazol-1-yl)methyl)phenyl)-1,2,4-oxadiazol-5-yl)-pyrrolidine-1-carboximidamide hydrochloride]	–	6.41	–
Cl.N=C(N)N1CCC[C@H]1c1nc(-c2ccc(Cn3cc(C4CC4)nn3)cc2)no1 [Compound 25h, (S)-2-((3-(4-((4-Cyclopropyl-1H-1,2,3-triazol-1-yl)methyl)phenyl)-1,2,4-oxadiazol-5-yl)pyrrolidine-1-carboximidamide hydrochloride]	–	6.61	–
Cl.N=C(N)N1CCC[C@H]1c1nc(-c2ccc(Cn3cc(C4CC4)nn3)cc2)no1 [Compound 25h]	–	–	selectivity/specificity for SphK2 over SphK1: high selective
